Drawing on ChEMBL document CHEMBL4414598, “Trifluorinated Pyrimidine-Based A2B Antagonists: Optimization and Evidence of Stereospecific Recognition” (J Med Chem, 2019), this text covers inhibition for 32 molecules.

Each structure is given as a SMILES string.

Experiment [1] addresses Adenosine receptor A2a (Homo sapiens, UniProt P29274). Briefly: Displacement of [3H]ZM241385 from human recombinant A2A receptor expressed in human HeLa cell membranes at 1 uM incubated for 30 mins by radioligand binding competition assay relative to control. For orientation: Displacement assays read how much labelled ligand stays bound in the presence of the test substance.

Experiment [2] has as its target T1, Adenosine receptor A3 (Homo sapiens) (UniProt P0DMS8).
T1 sequence (whole entry): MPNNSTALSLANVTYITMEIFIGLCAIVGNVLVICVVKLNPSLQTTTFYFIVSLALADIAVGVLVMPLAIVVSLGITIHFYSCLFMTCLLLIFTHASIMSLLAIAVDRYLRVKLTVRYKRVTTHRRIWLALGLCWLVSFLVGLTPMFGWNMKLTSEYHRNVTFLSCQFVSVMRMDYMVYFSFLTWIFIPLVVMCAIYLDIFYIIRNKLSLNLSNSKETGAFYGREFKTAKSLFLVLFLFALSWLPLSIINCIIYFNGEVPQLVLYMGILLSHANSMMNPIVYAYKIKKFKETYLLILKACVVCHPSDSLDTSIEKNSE
In words: Displacement of [3H]NECA from human A3 receptor expressed in human HeLa cell membranes at 1 uM incubated for 180 mins by radioligand binding competition assay relative to control.

Experiment [3] addresses T2, Adenosine receptor A1 (Homo sapiens) (UniProt P30542).
T2 sequence (whole entry): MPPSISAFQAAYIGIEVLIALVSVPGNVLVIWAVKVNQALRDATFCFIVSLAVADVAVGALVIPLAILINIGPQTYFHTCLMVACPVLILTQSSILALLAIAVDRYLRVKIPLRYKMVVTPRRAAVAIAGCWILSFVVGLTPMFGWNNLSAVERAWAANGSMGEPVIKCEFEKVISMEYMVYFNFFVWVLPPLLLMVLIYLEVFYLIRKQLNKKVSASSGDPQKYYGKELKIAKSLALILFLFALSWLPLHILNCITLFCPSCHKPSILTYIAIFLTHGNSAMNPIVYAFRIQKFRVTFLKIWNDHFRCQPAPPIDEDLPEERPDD
Briefly: Displacement of [3H]DPCPX from human recombinant A1 receptor expressed in CHOA1 cell membranes at 1 uM incubated for 60 mins by radioligand binding competition assay relative to control.

Experiment [4] has as its target T3, Adenosine receptor A2b (Homo sapiens) (UniProt P29275).
T3 sequence (whole entry): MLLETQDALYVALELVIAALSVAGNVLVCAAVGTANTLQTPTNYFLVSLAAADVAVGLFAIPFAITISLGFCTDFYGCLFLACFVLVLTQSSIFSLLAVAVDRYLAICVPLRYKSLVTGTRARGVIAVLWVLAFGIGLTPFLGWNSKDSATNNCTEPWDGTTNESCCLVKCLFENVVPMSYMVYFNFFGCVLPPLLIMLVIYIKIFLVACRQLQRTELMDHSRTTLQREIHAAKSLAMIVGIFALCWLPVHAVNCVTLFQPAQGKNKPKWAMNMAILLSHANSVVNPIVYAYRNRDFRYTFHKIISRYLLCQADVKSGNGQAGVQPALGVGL
Briefly: Displacement of [3H]DPCPX from human recombinant A2B receptor expressed in human HEK293 cell membranes at 1 uM incubated for 30 mins by radioligand binding competition assay relative to control.

Chain of Adenosine receptor A2a (P29274 whole entry): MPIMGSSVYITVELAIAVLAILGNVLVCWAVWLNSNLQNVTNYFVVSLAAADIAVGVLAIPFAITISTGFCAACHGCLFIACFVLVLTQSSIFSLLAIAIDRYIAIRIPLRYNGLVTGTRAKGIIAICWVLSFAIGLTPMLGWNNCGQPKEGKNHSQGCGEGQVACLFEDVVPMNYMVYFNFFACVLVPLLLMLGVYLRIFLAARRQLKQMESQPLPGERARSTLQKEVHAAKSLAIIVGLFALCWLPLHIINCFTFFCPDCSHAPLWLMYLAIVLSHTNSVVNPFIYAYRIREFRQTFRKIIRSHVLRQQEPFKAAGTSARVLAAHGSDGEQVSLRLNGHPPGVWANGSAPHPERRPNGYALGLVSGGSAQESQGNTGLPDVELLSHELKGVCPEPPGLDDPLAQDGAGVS

`CC1=C(C(=O)OC(C)C)C(c2ccoc2)n2c(nc3ccccc32)N1` (stereo not given): the inhibition – broadly, the percentage by which the read-out fell short of the control – in experiment [1] is 23%; in experiment [2], 2%; in experiment [3] it was 12%.

On to `CCOC(=O)C1=C(C)Nc2nc3ccccc3n2C1c1ccsc1` (stereo not given), for which the values for the inhibition in experiment [1], in experiment [2] and in experiment [3] were 10%, 2% and 3%, respectively.

For `CC(C)OC(=O)C1=C(C(F)(F)F)Nc2nc3ccccc3n2C1c1ccco1` (racemic), the inhibition is 10% in experiment [1], 39% in experiment [4], 5% in experiment [2] and 3% in experiment [3].

With `CCOC(=O)C1=C(C)Nc2nc3ccccc3n2C1c1ccco1` (stereo not given), the inhibition in experiment [1] worked out at 14%; in experiment [2], 1%; in experiment [3] it was 5%.

As for `CC1=C(C(=O)OCC(F)(F)F)C(c2ccsc2)n2c(nc3ccccc32)N1` (racemic), the inhibition in experiment [1] worked out at 17%; in experiment [4], 30%; in experiment [2], 2%; in experiment [3], 7%.

On to `CC1=C(C(=O)OC(C)C(F)(F)F)C(c2cccs2)NC(=O)N1` (stereo in doubt; 14k-D1), for which the inhibition came to 2% in experiment [1], 4% in experiment [4], 3% in experiment [2] and 12% in experiment [3].

For `CC1=C(C(=O)OC(C)C(F)(F)F)C(c2ccco2)NC(=O)N1` (stereo in doubt; 14i-D1), the inhibition in experiment [1] was determined as 3%; in experiment [2] it was 11%; in experiment [3], 1%.

As for `CC1=C(C(=O)OC(C(F)(F)F)C(F)(F)F)C(c2cccs2)n2c(nc3ccccc32)N1` (racemic), the inhibition in experiment [1] was determined as 10%; in experiment [4] it was 7%; in experiment [2], 19%; in experiment [3], 11%.

As to `CC1=C(C(=O)OCC(F)(F)F)C(c2cccs2)NC(=O)N1` (racemic), the inhibition came out at 3% in experiment [1], 1% in experiment [4], 1% in experiment [2] and 3% in experiment [3].

`CC1=C(C(=O)OC(C(F)(F)F)C(F)(F)F)C(c2ccoc2)NC(=O)N1` (racemic): the inhibition in experiment [1] is 22%; in experiment [4], 2%; in experiment [2] it was 1%; in experiment [3] it was 7%.

As to `CC(C)OC(=O)C1=C(C(F)(F)F)Nc2nc3ccccc3n2C1c1cccs1` (racemic), the inhibition amounted to 1% in experiment [1], 17% in experiment [4], 1% in experiment [2] and 4% in experiment [3].

With `CC1=C(C(=O)OC(C(F)(F)F)C(F)(F)F)C(c2cccs2)NC(=O)N1` (racemic), the inhibition was determined as 1% in experiment [1], 1% in experiment [4], 1% in experiment [2] and 9% in experiment [3].

In the case of `CCOC(=O)C1=C(C)Nc2nc3ccccc3n2C1c1cccs1` (stereo not given), the inhibition in experiment [1] stood at 16%; in experiment [2], 1%; in experiment [3] it was 8%.

Take `CC(C)OC(=O)C1=C(C(F)(F)F)Nc2nc3ccccc3n2C1c1ccsc1` (racemic): the inhibition was found to be 3% in experiment [1], 48% in experiment [4], 2% in experiment [2] and 10% in experiment [3].

Turning to `CC1=C(C(=O)OC(C(F)(F)F)C(F)(F)F)C(c2ccoc2)n2c(nc3ccccc32)N1` (racemic), the inhibition in experiment [1] was found to be 10%; in experiment [4], 21%; in experiment [2], 6%; in experiment [3], 24%.

In the case of `CC1=C(C(=O)OC(C)C(F)(F)F)C(c2ccsc2)n2c(nc3ccccc32)N1` (racemic), the inhibition in experiment [1] was found to be 24%; in experiment [4] it was 47%; in experiment [2], 2%; in experiment [3], 2%.

On to `CC1=C(C(=O)OC(C(F)(F)F)C(F)(F)F)C(c2ccsc2)n2c(nc3ccccc32)N1` (racemic), for which the inhibition stood at 15% in experiment [1], 1% in experiment [4], 1% in experiment [2] and 3% in experiment [3].

In the case of `CC1=C(C(=O)OC(C)C(F)(F)F)C(c2ccsc2)NC(=O)N1` (stereo in doubt; 14l-D1), the inhibition in experiment [1] was 2%; in experiment [2], 2%; in experiment [3], 3%.

For the molecule `CC1=C(C(=O)OC(C)C(F)(F)F)C(c2ccco2)NC(=O)N1` (stereo in doubt; 14i-D2), the inhibition was 1% in experiment [1], 7% in experiment [2] and 1% in experiment [3].

For `CC1=C(C(=O)OC(C)C(F)(F)F)C(c2cccs2)n2c(nc3ccccc32)N1` (racemic), the inhibition worked out at 2% in experiment [1], 27% in experiment [4], 4% in experiment [2] and 34% in experiment [3].

Take `CC1=C(C(=O)O[C@H](C)C(F)(F)F)[C@H](c2ccco2)n2c(nc3ccccc32)N1`: the inhibition in experiment [1] was found to be 2%; in experiment [4], 18%; in experiment [2] it was 1%; in experiment [3], 2%.

In the case of `CC1=C(C(=O)OC(C(F)(F)F)C(F)(F)F)C(c2ccsc2)NC(=O)N1` (racemic), the inhibition came out at 1% in experiment [1], 1% in experiment [4], 8% in experiment [2] and 17% in experiment [3].

As for `CC1=C(C(=O)OC(C)C(F)(F)F)C(c2ccsc2)NC(=O)N1` (stereo in doubt; 14l-D2), the inhibition worked out at 2% in experiment [1], 1% in experiment [4], 1% in experiment [2] and 3% in experiment [3].

On to `CCOC(=O)C1=C(C(F)(F)F)NC(=O)NC1c1cccs1` (racemic), for which the inhibition stood at 20% in experiment [1], 16% in experiment [4], 1% in experiment [2] and 28% in experiment [3].

Consider `CC1=C(C(=O)OC(C)C)C(c2ccsc2)n2c(nc3ccccc32)N1` (stereo not given), for which the inhibition in experiment [1] came to 3%; in experiment [2], 21%; in experiment [3], 11%.

Regarding `CC1=C(C(=O)OCC(F)(F)F)C(c2cccs2)n2c(nc3ccccc32)N1` (racemic), the inhibition came to 7% in experiment [1], 6% in experiment [4], 2% in experiment [2] and 1% in experiment [3].

For the molecule `CC1=C(C(=O)OC(C(F)(F)F)C(F)(F)F)C(c2ccco2)n2c(nc3ccccc32)N1` (racemic), the inhibition in experiment [1] was determined as 2%; in experiment [4], 16%; in experiment [2], 24%; in experiment [3] it was 16%.

`CCOC(=O)C1=C(C)Nc2nc3ccccc3n2C1c1ccoc1` (stereo not given): the results for the inhibition in experiment [1], in experiment [2] and in experiment [3] were 11%, 1% and 7%, respectively.

Regarding `CC1=C(C(=O)OCC(F)(F)F)[C@H](c2ccco2)n2c(nc3ccccc32)N1`, the inhibition in experiment [1] came out at 3%; in experiment [2], 8%; in experiment [3] it was 12%.

For the molecule `CCOC(=O)C1=C(C(F)(F)F)Nc2nc3ccccc3n2[C@H]1c1ccoc1`, the inhibition is 17% in experiment [1], 3% in experiment [2] and 10% in experiment [3].

As to `CC1=C(C(=O)OC(C)C(F)(F)F)C(c2ccoc2)NC(=O)N1` (stereo in doubt; 14j-D1), the inhibition in experiment [1] amounted to 1%; in experiment [2] it was 12%; in experiment [3] it was 10%.

With `CC1=C(C(=O)OC(C)C)C(c2cccs2)n2c(nc3ccccc32)N1` (stereo not given), the inhibition stood at 17% in experiment [1], 3% in experiment [2] and 1% in experiment [3].
